What was measured:
[1] = target: T1, Casein kinase II (Homo sapiens) (UniProt P67870+P68400+P19784); assay: In vitro inhibitory activity against casein kinase II was determined; assay type: protein-complex assay
[2] = target: T1, Casein kinase II (Homo sapiens); assay: Inhibition of CK-II-mediated 60S acidic ribosomal P protein activity at 10 uM; assay type: functional

C[C@H]1OC(O[C@@H]2C(=O)c3c(O)cc(O)cc3O[C@H]2c2ccc(O)c(O)c2)[C@H](O)[C@H](O)[C@@H]1O (stereo partly specified)
ID50 [1]: 7 µM | Activity [2]: Dose-dependent effect

C[C@@H]1CC[C@]2(C(=O)O)CC[C@]3(C)C(=CC[C@@H]4[C@]56CC[C@@](O)(OC5)C(C)(C)[C@@H]6CC[C@]43C)C2[C@H]1C (stereo partly specified)
Activity [2]: Dose-dependent effect

C[C@H]1OC(O[C@H]2C(=O)c3c(O)cc(O)cc3O[C@@H]2c2ccc(O)c(O)c2)[C@H](O)[C@H](O)[C@@H]1O (stereo partly specified)
ID50 [1]: 9 µM | Activity [2]: Dose-dependent effect

C/C=C(/C)C(=O)O[C@@H]1CC(C)(C)CC2C3=CC[C@@H]4[C@]56CC[C@@](O)(OC5)C(C)(C)[C@@H]6CC[C@@]4(C)[C@]3(C)CC[C@]21C(=O)O (stereo partly specified)
Activity [2]: Dose-dependent effect

Source: ChEMBL document CHEMBL1132665, “Casein kinase II inhibitors isolated from two Brazilian plants Hymenaea parvifolia and Wulffia baccata” (Bioorg Med Chem Lett, 1999)
